Source: patent publication US11771672B2, “Use of 2-hydroxyoleic acid for the treatment of systemic lupus erythematosus and other immune pathologies” (THE RESEARCH FOUNDATION FOR THE STATE UNIVERSITY OF NEW YORK, priority 2017, dated 2023)
Where two headings read alike, the source gives them in different places.

How the values were obtained:
SMS2 = target: T1, SMS2 (Mus musculus, UniProt Q9D4B1); assay: Elisa analysis of plasma membrane DAG levels in B cells; type: cell-based; conditions: purified Sgms2+/+ B cells
T1 construct: endogenous in cells; host or cells: purified primary splenic B cells from Sgms2+/+ mice (C57BL/6 background); Sgms2-/- B cells as knockout control
T1 sequence (Q9D4B1 1-365): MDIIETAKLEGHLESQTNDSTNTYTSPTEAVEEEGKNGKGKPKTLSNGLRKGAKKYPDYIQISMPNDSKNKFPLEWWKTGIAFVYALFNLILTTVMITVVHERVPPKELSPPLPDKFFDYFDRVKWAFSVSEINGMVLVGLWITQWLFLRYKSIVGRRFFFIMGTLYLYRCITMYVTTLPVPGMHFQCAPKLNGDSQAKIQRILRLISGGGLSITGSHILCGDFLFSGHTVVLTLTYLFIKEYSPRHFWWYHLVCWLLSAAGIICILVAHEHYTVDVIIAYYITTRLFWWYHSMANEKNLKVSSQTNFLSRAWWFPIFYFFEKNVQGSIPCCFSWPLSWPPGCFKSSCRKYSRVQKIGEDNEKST

PKCδ = assay: Western blot analysis of nuclear PKCδ (PKCδ nuclear translocation) in splenic B cells; type: cell-based, mouse
Source text: Generally speaking, PKCs are known to receive DAG on the plasma membrane for their full activation and subsequent subcellular translocation. However, in B cells, the plasma membrane DAG provider that activates PKCδ nuclear translocation is still unknown. Whether SMS2 was the DAG provider for PKCδ activation in mature B cells was therefore tested. In contrast to Sgms2^+/+ naive B cells, nuclear PKCδ was barely detectable in the Sgms2^−/− naive B cells following 24 hr culture. […] This DAG analog-dependent effect supported the involvement of SMS2-derived DAG in activation of PKCδ nuclear translocation.
To further clarify the mechanism that regulates PKCδ activation by SMS2-generated DAG, whether enhancing SMS2 activity could correspondingly increase PKCδ nuclear translocation in cultured Sgms2^+/+ B cells was tested.
293T cells were transfected with plasmid vectors to overexpress FLAG-tagged different SMS2 portions as indicated. Protein lysates from transfected 293T cells were immunoprecipitated with anti-FLAG antibody and then immunoblotted with anti-PKCδ antibody. Sample loading was controlled by inputs of cell lysates. […] Thus, SMS2 is a critical and direct PKCδ activator in mature B cells.

NZBWF1 mice = assay: Serum total IgG and anti-dsDNA IgG titers by ELISA in NZBWF1 mice (spontaneous SLE mouse model); type: in vivo; conditions: female NZBWF1 mice, four weeks
Source text: Given that PKCδ nuclear translocation was promoted by enhancing SMS2 activity with 2OHOA, whether this drug could be adopted to strengthen B cell tolerance in NZBWF1 mice that spontaneously develop SLE due to impaired tolerance caused by multiple genetic variants other than Sgms2 or Prkcd was examined. Remarkably, the expected increase in titers of anti-dsDNA IgGs in the sera of NZBWF1 mice over the same time frame as sham treated mice was impeded by 2OHOA treatment. […] This treatment started when the mouse serum anti-dsDNA IgG level reached the levels between 1,000 ng/ml and 30,000 ng/ml. The titers of serum total IgG and anti-dsDNA IgG were measured by ELISA. Shown in the graph are ratios of the IgG titers after treatment to the titers before treatment. Mann-Whitney test (2 tailed) was used to calculate p values, SEMs, and other parameters as shown in the graph and table. Data represents the results of 15 2OHOA-treated and 10 empty vehicle-treated mice.

splenic B cells = assay: Lysenin toxicity assay of surface SM levels in splenic B cells; type: cell-based, mouse; conditions: Sgms2-/- B cells, SM supplementation
SMS = conditions: cited from earlier work
[1] = as disclosed in U.S. Pat. No. 9,359,281

Question: Which results are given for `CCCCCCCC/C=C\CCCCCCC(O)C(=O)O` (stereo not shown) [2OHOA, 2-hydroxyoleic acid]?
Answer: SMS2-derived DAG level (plasma membrane DAG) (SMS2): increased; PKCδ nuclear translocation (PKCδ; Sgms2-/- B cells, 2OHOA-treated): but not in Sgms2^−/− B cells; PKCδ nuclear translocation (PKCδ; purified Sgms2+/+ B cells, 2OHOA-treated): increased; increase in titers of anti-dsDNA IgGs in the sera (NZBWF1 mice; oral gavage 400 mg/kg per day, vs sham treated mice): impeded; total serum IgG titers (NZBWF1 mice; oral gavage 400 mg/kg/day): without reducing the total serum IgG titers

Question: With sphingomyelin [SM] as the compound, how does the “nuclear PKCδ level” value (PKCδ; Sgms2-/- B cells, SM supplementation 24 hr) read?
Answer: could not restore

Question: What about the “surface SM level” value (splenic B cells) of the same compound?
Answer: Restoration of surface SM level

Question: For `CCCCC/C=C\C/C=C\C/C=C\CCCC(O)C(=O)O` (stereo not shown) [2-hydroxy-gamma-linoleic acid], which “stimulation of SMS activity” value (SMS; [1]) is on record?
Answer: stimulate SMS activity

Question: Which “stimulation of SMS activity” value (SMS; compared with (R)-2-hydroxyoleic acid or a mixture of the two stereoisomers) does the source give for `CCCCCCCC/C=C\CCCCCC[C@H](O)C(=O)O` [(S)-2OHOA, (S)-2-hydroxyoleic acid] here?
Answer: more strongly stimulates SMS activity

Question: Which PKCδ nuclear translocation (PKCδ; Sgms2+/+ B cells, PMA) does the source give for `CCCCCCCCCCCCCC(=O)O[C@@H]1[C@@H](C)[C@@]2(O)[C@@H](C=C(CO)C[C@]3(O)C(=O)C(C)=C[C@@H]23)[C@@H]2C(C)(C)[C@]12OC(C)=O` [PMA] here?
Answer: promotion of PKCδ nuclear translocation

Question: And the PKCδ nuclear translocation (PKCδ; Sgms2-/- B cells, PMA)?
Answer: but not in Sgms2^−/− B cells

Question: With `CCCCC/C=C\C/C=C\CCCCCCC(O)C(=O)O` (stereo not shown) [2-hydroxylinoleic acid] as the compound, how does the “stimulation of SMS activity” value (SMS; [1]) read?
Answer: stimulate SMS activity

Question: For `CCCCCC/C=C\CCCCCCC(O)C(=O)O` (stereo not shown) [2-hydroxypalmitoleic acid], which “stimulation of SMS activity” value (SMS; [1]) is on record?
Answer: stimulate SMS activity

Question: With `C/C=C(/C)C(=O)O[C@H]1C(C)=C[C@]23C(=O)[C@@H](C=C(CO)[C@@H](O)[C@]12O)[C@H]1[C@@H](C[C@H]3C)C1(C)C` [I3A, ingenol-3-angelate] as the compound, how does the “nuclear PKCδ” value (PKCδ; Sgms2+/+ B cells cultured for 30 minutes) read?
Answer: increased nuclear PKCδ

Question: And the “nuclear PKCδ” value (PKCδ; Sgms2-/- B cells cultured for 30 minutes)?
Answer: increased nuclear PKCδ

Question: Which “stimulation of SMS activity” value (SMS; [1]) does the source give for `CC/C=C\C/C=C\C/C=C\CCCCCCC(O)C(=O)O` (stereo not drawn) [2-hydroxy-alpha-linoleic acid] here?
Answer: stimulate SMS activity
